Laboratory results: US12358904B2, “Inhibitors of TYK2” (Atomwise Inc., priority 2023, dated 2025)

Tests used:
TYK2-JH2 = molecular target: T1, TYK2-JH2 (Homo sapiens, UniProt P29597); test: TYK2-JH2 HTRF binding assay (ligand efficiency); details: calculated from IC50 of the TYK-JH2 binding assay (Equation 1)
T1 construct: TYK JH2 enzyme mix (ChemPartnec CP20210818A-BV); purchased ChemPartner CP20210818A-BV
Method: The following example describes the TYK2-JH2 HTRF binding assay used to determine the ligand efficiency of the TYK2 inhibitors.
To calculate ligand efficiency, Equation 1 is applied:
[formula] in which IC50 comes from the binding assay used to determine compound potency.
TYK JH2 enzyme mix (ChemPartnec CP20210818A-BV), tracer (ChemPartnec CP-0029472-051) and mAb Anti-6HIS Tb cryptate Gold (Cisbio: Cat No. 61H12TLA) mix were prepared in assay buffer (10 mM MgCl2, 20 mM HEPES pH 7.5, 0.01% Triton X-100, 1 mM DTT). Compounds diluted in DMSO (Final Concentrations 0.1 to 0.000005 [μM]) and enzyme mix (0.5 nM Final Concentration) were added to 384 well plates, briefly centrifuged and incubated at room temperature for 10 minutes. After incubation, tracer mix (Tracer-35 nM final concentration); (Mab Anti-6HIS Tb cryptate Gold-0.5× final)) was added, briefly centrifuged then incubate at room temperature 60 minutes. After incubation, plates were read by Envision TR-FRET (Ex340/Em495/520) protocol (PerkinElmer-Envision 2104 multilabel plate reader).

GM-CSF/pSTAT5 = test: GM-CSF induced pSTAT5 assay in CellSensor irf1-bla TF-1 cells; format: cell-based; details: Homo sapiens, GM-CSF 1 ng/mL, read-out: Cellular selectivity (GM-CSF induced pSTAT5)
Method: The CellSensor irf1-bla TF-1 cell line (LifeTechnologies, K1657) was cultured in RPMI 1640 Medium (Invitrogen 72400-047), 10% Fetal Bovine Serum (Invitrogen, 26400044), 1 mM Sodium pyruvate (Life Technologies, 11360039), 1% MEM NEAA (Life Technologies, 11140-035), 2 ng/ml of human recombinant GM-CSF (Fisher, PHC2015), 1% Penicillin/Streptomycin (Life Technologies, 15140-122) and 5 μg/ml of Blasticidin (ThermoFisher, A1113903).
The cell line was seeded in a T75 flask at 13×10^6 cells/50 mL in starvation medium (Opti-MEM™ I Reduced Serum Medium, no phenol red (Life Technologies, 11058-021), 1 mM Na pyruvate (Life Technologies, 11360039), 1% MEM NEAA (Life Technologies, 11140-035), and 1% Penicillin/Streptomycin (Life Technologies, 15140-122)) for 16 hours at 37° C. under 5% CO2 the day before the assay.
For the assay, CellSensor irf1-bla TF-1 cells were seeded at 30 000 cells/32 μL (starvation medium)/well in a 384-well plate.
Compounds were added on the cells in 4 μL (starvation medium)/well at 10× the final concentration. They were incubated for 30 minutes at 37° C.
Human recombinant carrier-free GM-CSF (ThermoFisher, ref PHC2015) was added to the wells in 4 μL (starvation medium)/well at 10×. The final concentration was 1 ng/mL. Control wells without GM-CSF treatment were added. Plates were incubated for 5 hours at 37° C.
6× LiveBlazer-FRET substrate (Invitrogen, K1085) was added to the wells at 8 μL/well. The substrate was prepared shortly before use by mixing 6 μL of solution A and 60 μL of solution B to 934 μL of solution C. Plates were incubated for 2.5 hours at room temperature in the dark. The plates were read on an Envision (Perkin Elmer) with an excitation at a wavelength of 409 nm and two wavelengths for the emission 520 nm and 450 nm. The ratio between the […] emission was used to calculate the IC50s.
The IC50 for the inhibition of pSTAT5 was calculated with the Xlfit software using the 4 Parameter Logistic Model or Sigmoidal Dose-Response Model (model 205).

IL-12/pSTAT4 = test: IL-12 induced pSTAT4 assay in NK-92 cells; format: cell-based; details: Homo sapiens, NK92, IL-12 stimulation, read-out: Cellular potency (IL-12/pSTAT4)
Method: The following example describes the IL-12 induced pSTAT4 assay used to determine the cellular potency (IL-12/pSTAT4) of the TYK2 inhibitors.
NK-92 cells (human natural killer lymphoma cell line) were cultured in MEM α, nucleosides (Life Technologies, 22571020) 12.5% heat inactivated FBS (Dominique Dutscher, S1810), 12.5% heat inactivated Horse serum (Life Technologies, 26050088) and 1% Penicillin-Streptomycin (Life Technologies, 15140122), 5 ng/mL human IL-2 (R&D systems, 202-II/CF), 0.2 mM inositol (Sigma, PHR1351 lot LRAC4118), 0.1 mM β-mercaptoethanol (Life Technologies, 31350010), and 0.02 mM folic acid (Sigma, F8758).
NK-92 cells were starved overnight in starvation medium (Opti-MEM (ThermoFisher, 11058-021), 10% charcoal stripped FBS (ThermoFisher 12676-029), and 1% Penicillin (100U/ml)-Streptomycin (100 μg/ml) (ThermoFisher, ref 15140122)), then plated in a 96-well tissue culture plate (20K cells/well) prior to pre-incubation with test compounds (Final Concentration [nM] 1000 to 0.05) for 30 minutes at 37° C. Cells were stimulated with IL-12 (Final Concentration l0 ng/ml) for 30 minutes at 37° C., and terminated by addition of lysis buffer (MSD K150PAD-2). pSTAT4 (Tyr693) was detected using the Mesa Scale Discovery platform (MSD K150PAD-2), according to manufacturer's instruction. Briefly, cell lysates were added to pre-blocked plates and incubated for 1 hour at room temperature. Plates were washed and incubated with detection antibody for 1 hour at room temperature. Plates were washed and Read Buffer was added prior to measurement on the MSD (1300 MSD Quickplex SQ 120).

IL-6/pSTAT3 = test: IL-6 induced pSTAT3 assay in TF-1 cells; format: cell-based; details: Homo sapiens, read-out: Cellular selectivity (IL-6/pSTAT3)
Method: The following example describes the IL-6 induced pSTAT3 assay used to determine the cellular selectivity (IL-6/pSTAT3) of the TYK2 inhibitors.
TF-1 (ATCC®, CRL-2003™) cells were cultured in RPMI 1640 Medium, with GlutaMAX™ Supplement, HEPES for Cell Culture (Life Technologies, 72400047), 10% Fetal Bovine Serum (Life Technologies, 26400044), 2 ng/mL human recombinant GM-CSF (Life Technologies, PHC2013), 1 mM Sodium pyruvate (Life Technologies, 11360039), 1% MEM NEAA (Life Technologies, 11140-035), 1% Penicillin/Streptomycin (Life Technologies, 15140-122).
TF-1 (70×10^6) cells were starved overnight in T01 50 flasks (Opti-MEM™ I Reduced Serum Medium, no phenol red (Life Technologies, 11058-021), 1 mM Na pyruvate (Life Technologies, 11360039), 1% MEM NEAA (Life Technologies, 11140-035), and 1% Penicillin/Streptomycin (Life Technologies, 15140-122)) then seeded into 96-well TPP plates (150 000 cell/well) and incubated with test compounds (Final Concentration [nM] 10000-0.05) for 30 minutes at 37° C. […] Stimulation was terminated by addition of lysis buffer (MSD K150SVD) and pSTAT3 detection was measured with Phospho-STAT3 (Tyr705) Kit MSD K150SVD)) according to manufacturer's instruction. Briefly, cell lysates were added to pre-blocked plates, sealed, and shake for 1 hour at room temperature. Plates were then washed and incubated with detection antibody for 1 hour at room temperature. After washing, Read Buffer was added, and plates were read on MSD instrument (Model 1300 MSD Quickplex SQ 120).

T1 sequence (P29597 589-875 limits assumed): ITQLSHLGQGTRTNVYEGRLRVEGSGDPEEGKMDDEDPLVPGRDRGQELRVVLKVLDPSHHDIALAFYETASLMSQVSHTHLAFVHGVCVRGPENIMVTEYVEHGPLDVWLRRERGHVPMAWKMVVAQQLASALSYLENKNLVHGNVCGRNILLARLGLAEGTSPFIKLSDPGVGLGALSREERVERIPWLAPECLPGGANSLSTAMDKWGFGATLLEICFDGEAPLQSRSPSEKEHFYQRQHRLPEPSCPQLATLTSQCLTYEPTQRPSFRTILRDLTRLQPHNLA

Structure (SMILES)	Ligand Efficiency (TYK2-JH2)	IC50 (GM-CSF/pSTAT5)	IC50 (IL-12/pSTAT4)	IC50 (IL-6/pSTAT3)
CC1(Nc2ccc(Nc3cc(Nc4ncccc4S(C)(=O)=O)ncn3)nc2)COC1 [Compound 21, N^4-(5-((3-methyloxetan-3-yl)amino)102yridine-2-yl)-N^6-(3-(methylsulfonyl)102yridine-2-yl)pyrimidine-4,6-diamine]	††† (†††: >0.39)	> 10 µM	< 100 nM	4 to 10 µM
CS(=O)(=O)c1ccccc1Nc1cc(Nc2ccc(CNC3CCOC3)cn2)ncn1 (stereo not shown) [Compound 28, N^4-(2-(methylsulfonyl)phenyl)-N^6-(5-((tetrahydrofuran-3-ylamino)methyl)110yridine-2-yl)pyrimidine-4,6-diamine]	†† (††: 0.37-0.39)	> 10 µM	< 100 nM	> 10 µM
C[C@H]1CN(C2CC2)CCN1c1ccc(Nc2cc(Nc3ncccc3S(C)(=O)=O)ncn2)nc1 [Compound 8, (S)—N^4-(5-(4-cyclopropyl-2-methylpiperazin-1-yl)85yridine-2-yl)-N^6-(3-(methylsulfonyl)85yridine-2-yl)pyrimidine-4,6-diamine]	††† (†††: >0.39)	< 4 µM	< 100 nM	4 to 10 µM
CS(=O)(=O)c1cccnc1Nc1cc(Nc2ccc3c(n2)CC[C@@H]3N2CC3(COC3)C2)ncn1 [Compound 9, N^4-((5S)-5-(2-oxa-6-azaspiro[3.3]heptan-6-yl)-6,7-dihydro-5H-cyclopenta[b]86yridine-2-yl)-N^6-(3-(methylsulfonyl)86yridine-2-yl)pyrimidine-4,6-diamine]	††† (†††: >0.39)	> 10 µM	< 100 nM	> 10 µM
C[C@@H](c1ccc(Nc2cc(Nc3ncccc3S(C)(=O)=O)ncn2)nc1C(F)(F)F)N1CC2(COC2)C1 [Compound 11, I-N^4-(5-(1-(2-oxa-6-azaspiro[3.3]heptan-6-yl)ethyl)-6-(trifluoromethyl)90yridine-2-yl)-N^6-(3-(methylsulfonyl)90yridine-2-yl)pyrimidine-4,6-diamine]	†† (††: 0.37-0.39)	> 10 µM	< 100 nM	< 4 µM
CC(c1ccc(Nc2cc(Nc3ncccc3S(C)(=O)=O)ncn2)nc1)N1CC2(CC(F)C2)C1 (stereo in doubt) [Compound 10, N^4-(5-((1R)-1-(6-fluoro-2-azaspiro[3.3]heptan-2-yl)ethyl) 87yridine-2-yl)-N^6-(3-(methylsulfonyl)87yridine-2-yl)pyrimidine-4,6-diamine]	††† (†††: >0.39)	> 10 µM	< 100 nM	4 to 10 µM
Cc1ccnc(Nc2cc(Nc3ccccc3S(C)(=O)=O)ncn2)c1 [Compound 44, N^4-(4-methylpyridin-2-yl)-N^6-(2-(methylsulfonyl)phenyl) pyrimidine-4,6-diamine]	††† (†††: >0.39)	> 10 µM	< 100 nM	> 10 µM
Cc1cnnc(Nc2cc(Nc3ccccc3C(N)=O)ncn2)c1 [Compound 47, 2-((6-((5-methylpyridazin-3-yl)amino)pyrimidin-4-yl)amino) benzamide]	††† (†††: >0.39)	> 10 µM	< 100 nM	< 4 µM
CC(C)(NC1COC1)c1ccc(Nc2cc(Nc3ccccc3S(C)(=O)=O)ncn2)nc1 [Compound 39, N^4-(2-(methylsulfonyl)phenyl)-N^6-(5-(2-(oxetan-3-ylamino)propan-2-yl)127yridine-2-yl)pyrimidine-4,6-diamine]	†† (††: 0.37-0.39)	> 10 µM	< 100 nM	> 10 µM
COc1cnc(Nc2cc(Nc3ccc([C@H](C)N4CC5(COC5)C4)cn3)ncn2)c(S(C)(=O)=O)c1 [Compound 3, (S)—N^4-(5-(1-(2-oxa-6-azaspiro[3.3]heptan-6-yl)ethyl)pyridine-2-yl)-N^6-(5-methoxy-3-(methylsulfonyl)77yridine-2-yl)pyrimidine-4,6-diamine]	†† (††: 0.37-0.39)	> 10 µM	< 100 nM	4 to 10 µM
Cc1nc(Nc2cc(Nc3ncccc3S(C)(=O)=O)ncn2)ccc1NC1(C)COC1 [Compound 6, N^4-(6-methyl-5-((3-methyloxetan-3-yl)amino)82yridine-2-yl)-N^6-(3-(methylsulfonyl)82yridine-2-yl)pyrimidine-4,6-diamine]	††† (†††: >0.39)	> 10 µM	< 100 nM	4 to 10 µM
C[C@@H](c1ccc(Nc2cc(Nc3ncccc3S(C)(=O)=O)ncn2)nc1)N1C[C@H]2COC[C@H]2C1 [Compound 25, N^4-(3-(methylsulfonyl)105yridine-2-yl)-N^6-(5-(1-((3aR,6aS)-tetrahydro-1H-furo[3,4-c]pyrrol-5 (3H)-yl)ethyl)105yridine-2-yl)pyrimidine-4,6-diamine]	††† (†††: >0.39)	–	< 100 nM	–
